Test results: the Kinase Knowledgebase extract (Sharma et al. 2016)

target: CDK2 (human) (UniProt P24941); assay: Enzyme Assay

IC50, < 1 µM:
Cc1[nH]c(-c2n[nH]cc2NC(=O)c2onc3ccccc23)nc1C(F)(F)F, Cc1[nH]c(-c2n[nH]cc2NC(=O)c2c(F)cc(F)cc2F)nc1C(F)(F)F, Cc1[nH]c(-c2n[nH]cc2NC(=O)c2cccc3c2OCC3)nc1C(F)(F)F, Cc1[nH]c(-c2n[nH]cc2NC(=O)CC2CC2)nc1C(F)(F)F, COc1cccc(Cl)c1C(=O)Nc1c[nH]nc1-c1nc(C(F)(F)F)c(C)[nH]1, COc1ccc(S(C)(=O)=O)cc1C(=O)Nc1c[nH]nc1-c1nc(C(F)(F)F)c(C)[nH]1, Cc1[nH]c(-c2n[nH]cc2NC(=O)c2ccco2)nc1C(F)(F)F, Cc1cc(C(=O)Nc2c[nH]nc2-c2nc(C(F)(F)F)c(C)[nH]2)no1, CCOc1ccccc1C(=O)Nc1c[nH]nc1-c1nc(C(F)(F)F)c(C)[nH]1, Cc1[nH]c(-c2n[nH]cc2NC(=O)C(C#N)C2CC2)nc1C(F)(F)F (stereo not drawn), Cc1[nH]c(-c2n[nH]cc2NC(=O)c2cc(CN3CCOCC3)c(C)o2)nc1C(F)(F)F, COc1ccc(F)cc1C(=O)Nc1c[nH]nc1-c1nc(C(F)(F)F)c(C)[nH]1, Cc1[nH]c(-c2n[nH]cc2NC(=O)c2ccc3c(c2)OCC3)nc1C(F)(F)F
